This passage reports Kd results from publication PMC8162404, “Proteomimetic surface fragments distinguish targets by function” (Chemical Science, 2020).

The target in the first assay is T1, Gal-1 (Homo sapiens, UniProt P09382).
T1 construct: made in house; host or cells: E. coli BL21(DE3)
T1 sequence (P09382 whole entry): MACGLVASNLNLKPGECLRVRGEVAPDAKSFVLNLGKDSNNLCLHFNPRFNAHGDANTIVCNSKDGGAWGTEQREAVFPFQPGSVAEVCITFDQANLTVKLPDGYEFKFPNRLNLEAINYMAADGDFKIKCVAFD
The assay can be described thus: Pull-down assay with immobilized protein and LSM libraries. In kind it is binding. The conditions noted are these: H12 library; 1:1 binding assumed; read-out: Surface mapping KD (apparent). Here is the method:
Pull-down assays with immobilized test proteins and foldameric LSM libraries were carried out. Proteins were equilibrated with LSM probes, and equilibrium bound fractions (FB) were determined from the unbound fractions measured by HPLC-MS methods. Hits were corrected with background binding of the resin. The protocol allowed all binding events to equilibrate irrespective of affinity, specificity, and binding kinetics. This was essential to judge overall druggability and promiscuity. Importantly, the concentration of protein and the total concentration of foldameric LSMs were equimolar, which minimized competition between the probes. This experimental setup approximated independent binding of individual library members. Results were visualized as heat maps of dissociation constants (Fig. 3).
Pull-down assay and data analysis
Pull-down assay. LSM sublibraries were screened separately as previously described.(2) Experiments were performed in the following buffers: (i) 20 mM pH 7.4 HEPES, 150 mM NaCl, 5 mM CaCl2 for CaM; (ii) 50 mM pH 7.4 HEPES, 150 mM NaCl, 1 mM TCEP, 1 mM CaCl2 for S100 proteins; (iii) 20 mM pH 7.4 HEPES, 150 mM NaCl, 1 mM TCEP for Gal-1 and (iv) 20 mM pH 7.4 HEPES, 150 mM NaCl for RecQ-WH. Assays were performed in paper filter spin cups (Thermo Scientific) with sample volumes of 100 µl. Hexahistidine-tagged proteins were immobilized on previously washed Co-NTA resin (TALON, Takara Bio USA, Inc., Mountain View, CA) in 64 µM final concentration. LSM sublibrary was added, in which each of the 64 library members were used at a concentration of 1 µM. Samples were incubated at room temperature for 30 min with shaking at 100 rpm. Then, samples were centrifuged at 1000 rpm for 2 min and washed with 100 µl pull-down buffer to remove unbound compounds.
The control experiments were performed using the same compounds and the resin but without the immobilized protein. In case of competitive assays, competitor peptides were added to LSM sublibrary samples in 200 µM final concentration. In the case of Gal-1, lactose (competitor) was used in a concentration of 10 mM. Experiments were performed at least twice. Mean […]
LC-MS methods and parameters. HPLC/ESI-MS analysis was used to characterize the samples from the pull-down assay. LC-MS analysis was performed with a Thermo Scientific Dionex UltiMate 3000 HPLC system interfaced to an LTQ ion trap mass spectrometer (Thermo Electron Corp., San Jose, CA, USA). Samples were injected onto an Aeris Widepore XB-C18 (250 x 4.6 mm) analytical HPLC column using gradient elution 5-80 % solution B during 25 minutes. For pull-down samples, eluent composition was 0.1% acetic acid in distilled water (Solution A) and 0.1% acetic acid in acetonitrile (solution B). Mass spectra were acquired in full scan mode from 200 to 2000 m/z range. For overlapping peaks, selective reaction monitoring (SRM) was […]
MS data analysis. Thermo Xcalibur 2.2 software was used for peak identification and integration. The majority of the foldameric fragments could be resolved independently via HPLC-MS/MS measurements based on molecular weight, MS fragmentation pattern and retention time. Peaks of some foldamers with β3-hIle or β3-hLeu in position R2 could not be resolved, these were integrated and averaged. In the processing method, each sample component was associated to a chromatographic peak based on previously identified mass (m/z) and retention time (ref (2) and Table S7-10). Using ICIS peak detection algorithm, the general detection and integration criteria were: smoothing points: 5, baseline window: 80, area noise factor: 5, peak noise factor: 10. Using these processing setups, all raw data files were reprocessed together and analyzed. Errors in peak identification during the automatic processing were corrected manually.
Calculation of the discussed parameters
1. Bound fractions (FB.) were calculated from the HPLC-MS intensity loss of the LSM probes compared to the control where no protein was immobilized to the resin: […]
Take `C[C@@H](CC(=O)N[C@H]1CCC[C@@H]1C(=O)N[C@H]1CCC[C@@H]1C(=O)N[C@@H](CO)CC(=O)N[C@H]1CCC[C@@H]1C(=O)N[C@H]1CCC[C@@H]1C(N)=O)NC(=O)[C@H]1CCC[C@@H]1NC(=O)[C@H]1CCC[C@@H]1N` [H12 AS]: the Kd was 307 µM. With `NCCCC[C@@H](CC(=O)N[C@H]1CCC[C@@H]1C(=O)N[C@H]1CCC[C@@H]1C(=O)N[C@@H](CCC(=O)O)CC(=O)N[C@H]1CCC[C@@H]1C(=O)N[C@H]1CCC[C@@H]1C(N)=O)NC(=O)[C@H]1CCC[C@@H]1NC(=O)[C@H]1CCC[C@@H]1N` [H12 KE], the Kd came out at 212 µM.

On to `NC(=O)[C@H]1CCC[C@@H]1NC(=O)[C@H]1CCC[C@@H]1NC(=O)C[C@H](CC(=O)O)NC(=O)[C@H]1CCC[C@@H]1NC(=O)[C@H]1CCC[C@@H]1NC(=O)C[C@H](CCC(=O)O)NC(=O)[C@H]1CCC[C@@H]1NC(=O)[C@H]1CCC[C@@H]1N` [H12 ED], for which the Kd came out at 238 µM.

Consider `N=C(N)NCCC[C@@H](CC(=O)N[C@H]1CCC[C@@H]1C(=O)N[C@H]1CCC[C@@H]1C(=O)N[C@@H](CC(=O)O)CC(=O)N[C@H]1CCC[C@@H]1C(=O)N[C@H]1CCC[C@@H]1C(N)=O)NC(=O)[C@H]1CCC[C@@H]1NC(=O)[C@H]1CCC[C@@H]1N` [H12 RD], for which the Kd came out at 250 µM. On the same count and under the same terms, then `NC(=O)[C@H]1CCC[C@@H]1NC(=O)[C@H]1CCC[C@@H]1NC(=O)C[C@H](Cc1ccccc1)NC(=O)[C@H]1CCC[C@@H]1NC(=O)[C@H]1CCC[C@@H]1NC(=O)C[C@H](CC(=O)O)NC(=O)[C@H]1CCC[C@@H]1NC(=O)[C@H]1CCC[C@@H]1N` [H12 DF], with 254 µM; and `C[C@@H](O)[C@@H](CC(=O)N[C@H]1CCC[C@@H]1C(=O)N[C@H]1CCC[C@@H]1C(N)=O)NC(=O)[C@H]1CCC[C@@H]1NC(=O)[C@H]1CCC[C@@H]1NC(=O)C[C@H](CC(=O)O)NC(=O)[C@H]1CCC[C@@H]1NC(=O)[C@H]1CCC[C@@H]1N` [H12 DT], with 398 µM; and `NC(=O)[C@H]1CCC[C@@H]1NC(=O)[C@H]1CCC[C@@H]1NC(=O)C[C@H](CCC(=O)O)NC(=O)[C@H]1CCC[C@@H]1NC(=O)[C@H]1CCC[C@@H]1NC(=O)C[C@H](CC(=O)O)NC(=O)[C@H]1CCC[C@@H]1NC(=O)[C@H]1CCC[C@@H]1N` [H12 DE], with 238 µM. On the same count and under the same terms, the value for `CSCC[C@@H](CC(=O)N[C@H]1CCC[C@@H]1C(=O)N[C@H]1CCC[C@@H]1C(N)=O)NC(=O)[C@H]1CCC[C@@H]1NC(=O)[C@H]1CCC[C@@H]1NC(=O)C[C@H](CC(=O)O)NC(=O)[C@H]1CCC[C@@H]1NC(=O)[C@H]1CCC[C@@H]1N` [H12 DM] was 218 µM; that for `CC(C)[C@@H](CC(=O)N[C@H]1CCC[C@@H]1C(=O)N[C@H]1CCC[C@@H]1C(N)=O)NC(=O)[C@H]1CCC[C@@H]1NC(=O)[C@H]1CCC[C@@H]1NC(=O)C[C@H](C)NC(=O)[C@H]1CCC[C@@H]1NC(=O)[C@H]1CCC[C@@H]1N` [H12 AV] was 491 µM. On the same count and under the same terms, then `NC(=O)CC[C@@H](CC(=O)N[C@H]1CCC[C@@H]1C(=O)N[C@H]1CCC[C@@H]1C(N)=O)NC(=O)[C@H]1CCC[C@@H]1NC(=O)[C@H]1CCC[C@@H]1NC(=O)C[C@H](CC(=O)O)NC(=O)[C@H]1CCC[C@@H]1NC(=O)[C@H]1CCC[C@@H]1N` [H12 DQ], with 244 µM; and `C[C@@H](CC(=O)N[C@H]1CCC[C@@H]1C(=O)N[C@H]1CCC[C@@H]1C(=O)N[C@@H](CC(=O)O)CC(=O)N[C@H]1CCC[C@@H]1C(=O)N[C@H]1CCC[C@@H]1C(N)=O)NC(=O)[C@H]1CCC[C@@H]1NC(=O)[C@H]1CCC[C@@H]1N` [H12 AD], with 438 µM; and `CC(C)C[C@@H](CC(=O)N[C@H]1CCC[C@@H]1C(=O)N[C@H]1CCC[C@@H]1C(N)=O)NC(=O)[C@H]1CCC[C@@H]1NC(=O)[C@H]1CCC[C@@H]1NC(=O)C[C@H](CCC(=O)O)NC(=O)[C@H]1CCC[C@@H]1NC(=O)[C@H]1CCC[C@@H]1N` [H12 EL], with 244 µM. Turning to `CC(C)[C@@H](CC(=O)N[C@H]1CCC[C@@H]1C(=O)N[C@H]1CCC[C@@H]1C(=O)N[C@@H](CC(=O)O)CC(=O)N[C@H]1CCC[C@@H]1C(=O)N[C@H]1CCC[C@@H]1C(N)=O)NC(=O)[C@H]1CCC[C@@H]1NC(=O)[C@H]1CCC[C@@H]1N` [H12 VD], the Kd stood at 480 µM. `CC(C)[C@@H](CC(=O)N[C@H]1CCC[C@@H]1C(=O)N[C@H]1CCC[C@@H]1C(N)=O)NC(=O)[C@H]1CCC[C@@H]1NC(=O)[C@H]1CCC[C@@H]1NC(=O)C[C@H](CC(=O)O)NC(=O)[C@H]1CCC[C@@H]1NC(=O)[C@H]1CCC[C@@H]1N` [H12 DV]: the Kd came out at 270 µM. The same measure, in the same setting: the value for `NC(=O)[C@H]1CCC[C@@H]1NC(=O)[C@H]1CCC[C@@H]1NC(=O)C[C@H](CC(=O)O)NC(=O)[C@H]1CCC[C@@H]1NC(=O)[C@H]1CCC[C@@H]1NC(=O)C[C@H](CC(=O)O)NC(=O)[C@H]1CCC[C@@H]1NC(=O)[C@H]1CCC[C@@H]1N` [H12 DD] was 372 µM. On the same count and under the same terms, then `C[C@@H](O)[C@@H](CC(=O)N[C@H]1CCC[C@@H]1C(=O)N[C@H]1CCC[C@@H]1C(N)=O)NC(=O)[C@H]1CCC[C@@H]1NC(=O)[C@H]1CCC[C@@H]1NC(=O)C[C@H](CCC(=O)O)NC(=O)[C@H]1CCC[C@@H]1NC(=O)[C@H]1CCC[C@@H]1N` [H12 ET], with 372 µM; and `CC(C)C[C@@H](CC(=O)N[C@H]1CCC[C@@H]1C(=O)N[C@H]1CCC[C@@H]1C(=O)N[C@@H](CC(=O)O)CC(=O)N[C@H]1CCC[C@@H]1C(=O)N[C@H]1CCC[C@@H]1C(N)=O)NC(=O)[C@H]1CCC[C@@H]1NC(=O)[C@H]1CCC[C@@H]1N` [H12 LD], with 470 µM; and `NC(=O)[C@H]1CCC[C@@H]1NC(=O)[C@H]1CCC[C@@H]1NC(=O)C[C@H](Cc1c[nH]c2ccccc12)NC(=O)[C@H]1CCC[C@@H]1NC(=O)[C@H]1CCC[C@@H]1NC(=O)C[C@H](CCC(=O)O)NC(=O)[C@H]1CCC[C@@H]1NC(=O)[C@H]1CCC[C@@H]1N` [H12 EW], with 235 µM. The same measure, in the same setting: the value for `CC[C@H](C)[C@@H](CC(=O)N[C@H]1CCC[C@@H]1C(=O)N[C@H]1CCC[C@@H]1C(N)=O)NC(=O)[C@H]1CCC[C@@H]1NC(=O)[C@H]1CCC[C@@H]1NC(=O)C[C@H](CCC(=O)O)NC(=O)[C@H]1CCC[C@@H]1NC(=O)[C@H]1CCC[C@@H]1N` [H12 EI] was 244 µM. On to `NCCCC[C@@H](CC(=O)N[C@H]1CCC[C@@H]1C(=O)N[C@H]1CCC[C@@H]1C(N)=O)NC(=O)[C@H]1CCC[C@@H]1NC(=O)[C@H]1CCC[C@@H]1NC(=O)C[C@H](CC(=O)O)NC(=O)[C@H]1CCC[C@@H]1NC(=O)[C@H]1CCC[C@@H]1N` [H12 DK], for which the Kd turned out to be 173 µM. As to `C[C@@H](CC(=O)N[C@H]1CCC[C@@H]1C(=O)N[C@H]1CCC[C@@H]1C(=O)N[C@@H](CCC(N)=O)CC(=O)N[C@H]1CCC[C@@H]1C(=O)N[C@H]1CCC[C@@H]1C(N)=O)NC(=O)[C@H]1CCC[C@@H]1NC(=O)[C@H]1CCC[C@@H]1N` [H12 AQ], the Kd worked out at 456 µM. On to `NC(=O)[C@H]1CCC[C@@H]1NC(=O)[C@H]1CCC[C@@H]1NC(=O)C[C@H](CCC(=O)O)NC(=O)[C@H]1CCC[C@@H]1NC(=O)[C@H]1CCC[C@@H]1NC(=O)C[C@H](CCC(=O)O)NC(=O)[C@H]1CCC[C@@H]1NC(=O)[C@H]1CCC[C@@H]1N` [H12 EE], for which the Kd was 349 µM.

Staying with this assay, now noted: H14 library; 1:1 binding assumed; read-out: Surface mapping KD (apparent).
For `C[C@@H](CC(=O)N[C@H]1CCCC[C@@H]1C(=O)N[C@H]1CCCC[C@@H]1C(=O)N[C@@H](CC(N)=O)CC(=O)N[C@H]1CCCC[C@@H]1C(N)=O)NC(=O)[C@H]1CCCC[C@@H]1N` [H14 AN], the Kd was 303 µM.

Still in this assay, the particulars now being: read-out: KD estimated by pull-down experiments.
In the case of `NC(=O)[C@H]1CCCC[C@@H]1NC(=O)C[C@H](Cc1ccccc1)NC(=O)[C@H]1CCCC[C@@H]1NC(=O)[C@H]1CCCC[C@@H]1NC(=O)C[C@H](Cc1c[nH]c2ccccc12)NC(=O)[C@H]1CCCC[C@@H]1N` [12b], the Kd was 30 to 40 µM.
